Assay results: US5932545A, “Antiangiogenic drug to treat cancer, arthritis and retinopathy” (Abbott Laboratories, priority 1998, dated 1999)
pIC50: −log10 of the molar value. Square brackets hold non-standard residues; d marks the D form. Ends that are not written are not given here. Peptide text beside a SMILES is read from it.

Experiments:
[1] = system: bovine capillary (adrenal) endothelial cells (BCE); assay: endothelial cell migration assay (modified Boyden chamber); assay type: cell-based; conditions: 4 hours at 37° C., read-out: IC50, effect on endothelial cell migration
Experimental: The effect of the peptides of the invention on endothelial cell migration was determined in vitro using the endothelial cell migration assay. This assay was performed essentially as described by Polverini, P. J. et al., Methods Enzymol, 198: 440-450 (1991). Briefly, bovine capillary (adrenal) endothelial cells (BCE, supplied by Judah Folkman, Harvard University Medical School) were starved overnight in DMEM containing 0.1% bovine serum albumin (BSA). Cells were then harvested with trypsin and resuspended in DMEM with 0.1% BSA at a concentration of 1.5×10^6cells/mL. Cells were added to the bottom of a 48-well modified Boyden chamber (Nucleopore Corporation, Cabin John, Md.). The chamber was assembled and inverted, and cells were allowed to attach for 2 hours at 37° C. to polycarbonate chemotaxis membranes (5 μm pore size) that had been soaked in 0.1 % gelatin overnight and dried. The chamber was then reinverted and test compounds were added to the wells of the upper chamber (to a total volume of 50 μL); the apparatus was then incubated for 4 hours at 37° C. Membranes were recovered, fixed and stained (DiffQuick, Fisher Scientific, Pittsburgh, Pa.) and the number of cells that had migrated to the upper chamber per 10 high power fields were counted. Background migration to DMEM+0.1% BSA was subtracted and the data reported as the number of cells migrated per 10 high power fields (400×) or when results from multiple experiments were combined, as the percent of maximal migration compared to a simultaneous positive control.

[2] = system: rat corneal neovascularization; assay: rat corneal neovascularization assay (hydron pellets, peptide alone or with bFGF); assay type: in vivo; conditions: 7 days
Experimental: Inhibition of angiogenesis in vivo was measured using a rat corneal neovascularization assay. Accordingly, 6% hydron pellets containing peptide alone or in combination with 0.15 μM bFGF were implanted in rat corneas 1-1.5 mm from the limbus. at 7 days, the rats were sacrificed, perfused with colloidal carbon to visualize vessels and the corneas were extracted. Vigorous vessel ingrowth was scored as a positive angiogenic response. Induction control indicates response to 0.15 μM bFGF alone.

[3] = system: cultured endothelial cells; conditions: background, Tolsma et al. 1993; cited from earlier work
[4] = system: rat cornea neovascularization; conditions: background, Tolsma et al. 1993; cited from earlier work

Compound: CC[C@H](C)[C@H](NC(=O)[C@H](CCCNC(=N)N)NC(=O)[C@@H](NC(=O)[C@@H](NC(=O)[C@@H](NC(=O)CNC(=O)[C@H](CC(=O)O)NC(=O)CNC(=O)[C@H](C)NC(=O)[C@@H](NC(=O)[C@@H](NC(=O)[C@H](CO)NC(=O)[C@H](C)NC(=O)[C@@H](CO)NC(=O)[C@H](CO)NC(=O)[C@H](Cc1c[nH]c2ccccc12)NC(=O)[C@@H]1CCCN1C(=O)[C@@H](N)CO)C(C)C)[C@@H](C)O)C(C)C)[C@@H](C)CC)[C@@H](C)O)C(=O)N[C@@H](CCCNC(=N)N)C(=O)O [Ser-Pro-Trp-Ser-D-Ser-Ala-Ser-Val-Thr-Ala-Gly-Asp-Gly-Val-Ile-Thr-Arg-Ile-Arg] (H-SPWS[dS]ASVTAGDGVITRIR-OH)
- pIC50 [1]: 9.05

Compound: CCNC(=O)[C@H](CCCNC(=N)N)NC(=O)[C@@H](NC(=O)[C@H](CCCNC(=N)N)NC(=O)[C@@H](NC(=O)[C@H](NC(=O)[C@@H](NC(=O)CNC(=O)[C@H](Cc1ccc(O)cc1)NC(C)=O)C(C)C)[C@H](C)CC)[C@@H](C)O)[C@@H](C)CC [Ac-Tyr-Gly-Val-D-Ile-Thr-Arg-Ile-Arg-NHCH2 CH3] (Ac-YGV[dI]TRIR-NHEt)
- pIC50 [1]: 7.30

Compound: CC[C@@H](C)[C@@H](NC(=O)[C@@H](NC(=O)CNC(=O)[C@H](CC(=O)O)NC(=O)CNC(=O)[C@H](C)NC(=O)[C@@H](NC(=O)[C@@H](NC(=O)[C@H](CO)NC(=O)[C@H](C)NC(=O)[C@H](CO)NC(=O)[C@@H](CO)NC(=O)[C@H](Cc1c[nH]c2ccccc12)NC(=O)[C@@H]1CCCN1C(=O)[C@@H](N)CO)C(C)C)[C@@H](C)O)C(C)C)C(=O)N[C@H](C(=O)N[C@@H](CCCNC(=N)N)C(=O)N[C@H](C(=O)N[C@@H](CCCNC(=N)N)C(=O)O)[C@@H](C)CC)[C@@H](C)O [Ser-Pro-Trp-D-Ser-Ser-Ala-Ser-Val-Thr-Ala-Gly-Asp-Gly-Val-D-Ile-Thr-Arg-Ile-Arg] (H-SPW[dS]SASVTAGDGV[dI]TRIR-OH)
- Positive Corneas/Total Implanted, Tested + bFGF ([2]; peptide + 0.15 μM bFGF, peptide concentration not given): 0/3
- Positive Corneas/Total Implanted, Tested Alone ([2]; peptide alone in hydron pellet, concentration not given): 0/3

Compound: CCNC(=O)[C@H](CCCNC(=N)N)NC(=O)[C@@H](NC(=O)[C@H](CCCNC(=N)N)NC(=O)[C@@H](NC(=O)[C@H](NC(=O)[C@@H](NC(=O)CNC(C)=O)C(C)C)[C@H](C)CC)[C@@H](C)O)[C@@H](C)CC [Ac-Gly-Val-D-Ile-Thr-Arg-Ile-Arg-NHEt, Ac-Gly-Val-D-Ile-Thr-Arg-Ile-Arg-NHCH2 CH3] (Ac-GV[dI]TRIR-NHEt)
- pIC50 [1]: 9.17

Compound: CC[C@@H](C)[C@@H](NC(=O)[C@@H](NC(=O)CNC(=O)[C@H](CC(=O)O)NC(=O)CNC(=O)[C@H](C)NC(=O)[C@@H](NC(=O)[C@@H](NC(=O)[C@H](CO)NC(=O)[C@H](C)NC(=O)[C@@H](CO)NC(=O)[C@H](CO)NC(=O)[C@H](Cc1c[nH]c2ccccc12)NC(=O)[C@@H]1CCCN1C(=O)[C@@H](N)CO)C(C)C)[C@@H](C)O)C(C)C)C(=O)N[C@H](C(=O)N[C@@H](CCCNC(=N)N)C(=O)N[C@H](C(=O)N[C@@H](CCCNC(=N)N)C(=O)O)[C@@H](C)CC)[C@@H](C)O [Ser-Pro-Trp-Ser-D-Ser-Ala-Ser-Val-Thr-Ala-Gly-Asp-Gly-Val-D-Ile-Thr-Arg-Ile-Arg] (H-SPWS[dS]ASVTAGDGV[dI]TRIR-OH)
- pIC50 [1]: 9.05

Compound: CC[C@@H](C)[C@@H](NC(=O)[C@@H](NC(=O)CNC(=O)[C@H](CC(=O)O)NC(=O)CNC(=O)[C@H](C)NC(=O)[C@@H](NC(=O)[C@@H](NC(=O)[C@H](CO)NC(=O)[C@H](C)NC(=O)[C@H](CO)NC(=O)[C@H](CO)NC(=O)[C@H](Cc1c[nH]c2ccccc12)NC(=O)[C@@H]1CCCN1C(=O)[C@@H](N)CO)C(C)C)[C@@H](C)O)C(C)C)C(=O)N[C@H](C(=O)N[C@@H](CCCNC(=N)N)C(=O)N[C@H](C(=O)N[C@@H](CCCNC(=N)N)C(=O)O)[C@@H](C)CC)[C@@H](C)O [Ser-Pro-Trp-Ser-Ser-Ala-Ser-Val-Thr-Ala-Gly-Asp-Gly-Val-D-Ile-Thr-Arg-Ile-Arg] (H-SPWSSASVTAGDGV[dI]TRIR-OH)
- pIC50 [1]: 8.00

Compound: CC[C@@H](C)[C@@H](NC(=O)[C@@H](NC(=O)CNC(C)=O)C(C)C)C(=O)N[C@H](C(=O)N[C@@H](CCCNC(=N)N)C(=O)N[C@H](C(=O)N[C@@H](CCCNC(=N)N)C(N)=O)[C@@H](C)CC)[C@@H](C)O [Ac-Gly-Val-D-Ile-Thr-Arg-Ile-Arg-NH2] (Ac-GV[dI]TRIR-NH2)
- pIC50 [1]: 8.15
- Positive Corneas/Total Implanted, Tested + bFGF ([2]; 0.1 μM peptide + 0.15 μM bFGF): 1/3
- Positive Corneas/Total Implanted, Tested Alone ([2]; 0.1 μM peptide alone): 0/3
- Positive Corneas/Total Implanted, Tested + bFGF ([2]; 1 μM peptide + 0.15 μM bFGF): 0/2
- Positive Corneas/Total Implanted, Tested Alone ([2]; 1 μM peptide alone): 0/1
- Positive Corneas/Total Implanted, Tested + bFGF ([2]; 20 μM peptide + 0.15 μM bFGF): 0/2
- Positive Corneas/Total Implanted, Tested Alone ([2]; 20 μM peptide alone): 0/4

Compound: SPWSSASVTAGDGVITRIR [MalII, 19-mer synthetic peptide mimicking properdin-like repeat region 1 of TSP1]
- ED50, inhibition of the migration of cultured endothelial cells [3]: about 1 μM
- neovascularization in vivo in the rat cornea [4]: blocked neovascularization in vivo in the rat cornea
